Data from patent publication US7094798B1, “Inhibitors of checkpoint kinases (Wee1 and Chk1)” (Pfizer Inc, priority 2002, dated 2006).
Like-named read-outs stand apart in the source and are kept apart here. One block for each compound: values may come before it.

Legend:
[1] = target: T1, PKC contained in a rat brain preparation; assay: Protein Kinase C (PKC) assay; type: biochemical; settings: histone H1 substrate
T1 construct: Enzyme was prepared from a preparation of rat brain (Promega) 0.5 μg diluted with 1.6 ml of 10 mM Hepes buffer pH 7.5
Method: The PKC assay provides a measure of inhibitory activity of the test compounds against PKC contained in a rat brain preparation.
Enzyme was prepared from a preparation of rat brain (Promega) 0.5 μg diluted with 1.6 ml of 10 mM Hepes buffer pH 7.5. Reaction buffer was comprised of 150 mM Hepes buffer, 4 mM CaCl2, 15 mM MgCl2, 3 mM EDTA, 3.75 mM EGTA at pH 7.5. Histone substrate was made by dissolving histone H1 (Sigma) in water at 1.5 mg/ml. Phosphatidylserine/diolein liposomes were made by mixing 75 μl of 10 mg/ml phosphatidylserine (Sigma) in CHCl3 with 60 μl of 2.5 mg/ml diolein in CHCl3 (Sigma) in a glass vial and evaporating the CHCl3 under N2. The film was suspended in 1 ml water and sonicated 6×15 sec with a microtip probe at room temperature.
To carry out the assay, 50 μl buffer, 20 μl histone, 20 μl liposomes, and inhibitor or solvent control were added to wells of a 96-well filter plate (Millipore) with enough water, if necessary, to make the final volume 110 μl. 20 μl of enzyme preparation solution were added and incubated for 10 minutes at room temperature. This was followed by the addition of 20 μl of ^32P ATP (75 μM ATP in water, labeled ATP at 25 μCi/ml) which was incubated for 15 minutes at room temperature. The reaction was terminated by the addition of 50 μl of 40% (w/v) trichloroacetic acid. The filters were washed by vacuum filtration with 5×125 μl of ice cold 10% (w/v) trichloroacetic acid. The filters were placed in scintillation fluor and counted to determine precipitated labeled phosphate incorporated into substrate. The percent inhibition was calculated in comparison to the uninhibited controls.

HT-29 cells [2] = assay: MPM-2 assay (mitotic index) in cultured HT-29 cells; type: cell-based; settings: compound 312.5 nM
Method: This assay uses […] antibody to quantitate the M-phase specific histological markers in the determination of a mitotic index (fraction of cells found in mitosis).
HT-29 cells were grown in Dulbecco's Modified Eagle Medium with high glucose, supplemented with 1 mM sodium pyruvate, 2 mM L-glutamine, 16 mM HEPES, 8 mM MOPS, and 10% fetal bovine serum. They were incubated at 37° C. in an atmosphere of 5% CO2 and 100% relative humidity.
Cells were seeded in 96-well tissue culture plates at 100 μl per well at a concentration of 40,000 per ml. The cells were allowed to attach and begin growing for 24 hours. 100 μl of adriamycin (ADR) at 2 μM (final=1 μM) was added to test cells and the cells incubated for 1 hour as above. Following the incubation, the plates were washed 2 times with growth media. The media was replaced with 100 μl fresh media and incubate a further 16 hours. Serial 2-fold dilutions of potential abrogators were added to the test wells. The rows that received nocodazole (NOC) have 2 μl NOC added at 2.5 μg/ml. The plates were then incubated an additional 6 hours. Following the incubation, the plates were centrifuged for 5 minutes at 4° C. at 200 g. One hundred microliters of Carnoy's fixative, 3 parts methanol to 1 part acetic acid, was added directly to each well and left at room temperature for 15 minutes. The media/fixative mixture was removed by suction and replaced with ice cold ethanol:acetic acid in a 20:1 ratio. The plates were stored at 4° C. until stained.
The fixed cells were stained for MPM-2 using the Upstate Biotechnology MPM-2 rhodamine detection kit per manufacturer's instructions. Briefly, the cells were washed with Dulbecco's phosphate buffered saline (DPBS) with calcium and magnesium followed by incubation with blocking buffer consisting of 8% bovine serum albumen (BSA) for a minimum of 1 hour. The cells were then washed with PBS one time and treated overnight at 4° C. with primary antibody at 5 μg/ml (100 μl per well) diluted with DPBS with 1% BSA. The cells were then washed twice for 15 minutes each with DPBS and then incubated with a 1:1000 dilution of rhodamine conjugated goat antimouse IgG in DPBS with 1% BSA for 1 hour. The secondary antibody was washed off in three 30-minute washes with DPBS. The cells were then counterstained using the Molecular Probes Mycoflour kit to stain nuclei following the instructions for the kit.
The stained cells were viewed under fluorescence microscopy using fluorescence filters suitable for detecting rhodamine and DAPI stains. Images were captured using a Spot digital camera and images analyzed using ImageQuant to quantitate total nuclei and to count MPM-2 positive cells.

HT-29 cells [3] = assay: Clonogenic assay in HT-29 cells ± Adriamycin; type: cell-based; settings: Homo sapiens, compound 250 nM
Method: This cellular assay is a measure of the toxicity of the test compounds in the absence and presence of DNA damage induced by a conventional chemotherapeutic agent.
HT-29 cells were grown in Dulbecco's Modified Eagle Medium with high glucose, supplemented with 1 mM sodium pyruvate, 2 mM L-glutamine, 16 mM HEPES, 8 mM MOPS, and 10% fetal bovine serum. The cells were incubated at 37° C. in an atmosphere of 5% CO2 and 100% relative humidity.
Two or three T-75 tissue culture flasks were seeded at about 50% confluency in 30 ml media and incubated for approximately 24 hours. Adriamycin (ADR) (dissolved at 5 mM in distilled water (dH2O)) was added to the flasks to a final concentration of 1 uM or 500 nM. One flask received no ADR. The cells were allowed to incubate with the ADR for 1 hour. All flasks were then washed twice with 20 ml media allowed to incubate a further 16 hours in 30 ml media.
The stock agar (3.2% Seaplaque GTG Agarose (BioWhittaker Molecular Applications)) was suspended in distilled water and autoclaved for 20 minutes. The agar was melted prior to use in a microwave oven. […]
The cells were trypsinized using Trypsin-EDTA and their concentration adjusted to […] with media. […] The colonies were counted using a Hamamatsu video imaging system and ImageQuant software.

[4] = tested on: L1210 murine leukemia tumor cells; assay: Cell cycle distribution of L1210 cells treated in vivo; parameters: species or system mice; settings: cisplatin 6 mg/kg, compound of Example 80 20 mg/kg, 24 hours after administration
[5] = target: T2, human Wee1 kinase aa215-647 (Homo sapiens, UniProt P30291); assay: Wee1 inhibition filter binding assay (OY); type: biochemical; settings: isolated Wee1 kinase, Poly Ornithine:Tyrosine (4:1) substrate; read-out: WEE1OY IC50
T2 construct: human Wee1 kinase aa215-647; purchased Onyx Pharmaceuticals; host or cells: baculovirus protein expression system
T2 sequence (P30291 215-646 limits assumed): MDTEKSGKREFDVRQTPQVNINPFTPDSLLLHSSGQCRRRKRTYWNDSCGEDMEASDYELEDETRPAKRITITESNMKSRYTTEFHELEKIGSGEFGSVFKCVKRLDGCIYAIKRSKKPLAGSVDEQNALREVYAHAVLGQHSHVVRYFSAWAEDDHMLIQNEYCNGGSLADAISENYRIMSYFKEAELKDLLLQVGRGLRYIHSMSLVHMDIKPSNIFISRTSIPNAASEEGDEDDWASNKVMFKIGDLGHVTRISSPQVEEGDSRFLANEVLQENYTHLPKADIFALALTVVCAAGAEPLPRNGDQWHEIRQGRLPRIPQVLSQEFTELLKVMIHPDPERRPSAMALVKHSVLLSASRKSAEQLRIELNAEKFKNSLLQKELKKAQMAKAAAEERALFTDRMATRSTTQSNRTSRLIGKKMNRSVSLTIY
Method: This assay provides a measure of inhibitory ability of the test compounds against isolated Wee1 kinase.
The Wee1 kinase assay measures enzyme mediated phosphorylation of tyrosine on a synthetic peptide substrate in the presence of compounds being tested. […] Compounds were dissolved and diluted in DMSO, 10 μl 3×EDB buffer (150 mM Tris, pH 8.0, 30 mM NaCl, 30 mM MgCl2, 3 mM DTT), 18 μl water, and 2 μl of drug dilution were added to the test wells and mixed thoroughly, 10 μl of enzyme-substrate mixture was added to the wells. […] The plates were mixed thoroughly for 5 minutes at room temperature. […] The reaction was stopped by adding 50 μl of ice cold 20% TCA with 0.1 M tetrasodium pyro-phosphate. Plates were incubated on ice or refrigerated at 4° C. for 1 hour. Liquid reaction mixture was removed on a vacuum manifold, and the precipitated phosphorylated substrate was rinsed 5 times with 200 μl ice cold 10% TCA with 0.1 M tetrasodium pyrophosphate. 25 μl liquid scintillation cocktail were added to the membrane bound substrate and the plate read in a Microbeta (Perkin-Elmer) plate reader. Activity of compounds was calculated in comparison to uninhibited control determinations in each assay.

Chk1 enzyme = target: T3, Chk1 enzyme (Homo sapiens, UniProt O14757); assay: Chk1 enzyme inhibition assay; type: biochemical; settings: isolated Chk1 enzyme, GST-Cdc25 substrate; read-out: CHK1A IC50
T3 construct: purchased Onyx Pharmaceuticals
T3 sequence (O14757 1-476): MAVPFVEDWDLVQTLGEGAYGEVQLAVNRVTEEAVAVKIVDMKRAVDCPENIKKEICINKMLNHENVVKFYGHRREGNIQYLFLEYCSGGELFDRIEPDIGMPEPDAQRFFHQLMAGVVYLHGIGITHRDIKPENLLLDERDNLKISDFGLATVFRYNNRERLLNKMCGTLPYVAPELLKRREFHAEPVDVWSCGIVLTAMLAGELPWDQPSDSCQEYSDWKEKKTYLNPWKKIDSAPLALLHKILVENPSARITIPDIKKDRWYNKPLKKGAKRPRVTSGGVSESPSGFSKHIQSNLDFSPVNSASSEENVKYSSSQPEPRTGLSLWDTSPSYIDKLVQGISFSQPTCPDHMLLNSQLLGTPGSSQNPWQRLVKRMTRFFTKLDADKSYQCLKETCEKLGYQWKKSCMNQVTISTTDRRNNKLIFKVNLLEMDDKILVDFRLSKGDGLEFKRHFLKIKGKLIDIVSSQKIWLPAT
Method: The assay was carried out in round bottom polypropylene 96-well plates (Costar). Compounds were tested in serial dilutions beginning with a high concentration of 50 μM followed by up to nine 3-fold dilutions. Compounds were dissolved and diluted in DMSO. 2 μl of drug were spotted on the bottom of the assay plates, then diluted with 58 μl of Chk1 buffer (20 mM Tris, pH 8.0, 50 mM NaCl, 10% Glycerol, 10 mM MgCl2, 5 mM dithiothreitol), and mixed at room temperature for 1 minute. […] Contents of the wells were mixed for 1 minute and incubated at room temperature for 10 minutes. […] The contents were mixed for 1 minute and incubated at 30° C. for 30 minutes. The reaction was stopped by adding 50 μl of 120 mM EDTA to each well, except the control wells already containing EDTA. 140 μl of the contents of the wells were transferred to the wells of Reacti-Bind Glutathione Coated White 96-Well Plates (Pierce). Contents were mixed for 1 minute and incubated at room temperature for 1 hour. All of the wells were rinsed three times each with 300 μl PBS and air dried. 200 μl MicroScint 20 (Packard) was put in the wells. Plates were sealed with an adhesive cover and counted in a Top Count Microplate Scintillation counter (Packard). Activity of compounds was calculated in comparison to uninhibited control determinations in each assay.

Compound: CN(C)CCCOc1cc2c(cc1O)c1c3c(c(-c4ccccc4Cl)cc1n2C)C(=O)NC3=O [Example 363, 4-(2-Chlorophenyl)-8-[3-(dimethylamino)propoxy]-9-hydroxy-6-methylpyrrolo[3,4-c]carbazole-1,3(2H,6H)-dione]
% of cells in M phase, + Media (HT-29 cells [2]; 6 hours): 26.4%
% of cells in M phase, + ADR (HT-29 cells [2]; after ADR 1 μM 1 hour and 16 hours): 18.9%
% of cells in M phase, + ADR + NOC (HT-29 cells [2]; after ADR 1 μM, with nocodazole 6 hours): 86.2%
% of cells in M phase, + NOC (HT-29 cells [2]; with nocodazole 6 hours): 37.2%

Compound: Cn1c2cc(OCCCN3CCCC3)c(O)cc2c2c3c(c(-c4ccccc4Cl)cc21)C(=O)NC3=O [Example 366, 4-(2-Chlorophenyl)-9-hydroxy-6-methyl-8-[3-(1-pyrrolidinyl)propoxy]pyrrolo[3,4-c]carbazole-1,3(2H,6H)-dione]
activity at 0.25 µM (HT-29 cells [3]; Adriamycin pretreatment 1 hour, read-out: % of Control Colonies With DNA Damage): 2.8%
activity at 0.25 µM (HT-29 cells [3]; no Adriamycin, read-out: % of Control Colonies With No DNA Damage): 38%

Compound: O=C1NC(=O)c2c1c(-c1ccccc1Cl)cc1c2c2cc(O)ccc2n1CCCO [Example 80, 4-(2-Chlorophenyl)-9-hydroxy-6-(3-hydroxypropyl)pyrrolo[3,4-c]carbazole-1,3(2H,6H)-dione]
IC50 [1]: 1490 nM
Cell cycle distribution of L1210 cells, G1 [4]: 60.0%
Cell cycle distribution of L1210 cells, G2M [4]: 12.4%
Cell cycle distribution of L1210 cells, S [4]: 27.6%

Compound: N.N.[Cl][Pt][Cl] [Cisplatin, reference compound]
Cell cycle distribution of L1210 cells, G1 [4]: 14.0%
Cell cycle distribution of L1210 cells, G2M [4]: 59.6%
Cell cycle distribution of L1210 cells, S [4]: 26.4%

Compound: CN(C)CCNC(=O)CCn1c2ccc(O)cc2c2c3c(c(-c4ccccc4)cc21)C(=O)NC3=O [Example 214, N-[2-(Dimethylamino)ethyl]-3-(9-hydroxy-1,3-dioxo-4-phenyl-2,3-dihydropyrrolo[3,4-c]carbazol-6 (1H)-yl)propanamide]
IC50 [1]: 171 nM

Compound: COc1ccc2[nH]c3c(c2c1)C1C(=O)NC(=O)C1C(c1ccccc1Cl)C3 (mixture of isomers) [Example 68, 4-(2-Chlorophenyl)-9-methoxy-4,5,6,10c-tetrahydropyrrolo[3,4-c]carbazole-1,3(2H,3aH)-dione]
IC50 [5]: 11 nM
IC50 (Chk1 enzyme): 435 nM
IC50 [1]: 480 nM

The next lines start with the values.

IC50 [1]: > 4000 nM
Compound: O=C1NC(=O)c2c1c(-c1ccccc1)cc1oc3ccc(O)cc3c21 [Example 369, 9-Hydroxy-4-phenyl-1H-[1] benzofuro[3,2-e]isoindole-1,3(2H)-dione]

IC50 [1]: 1500 nM
Compound: O=C(O)CCn1c2ccc(O)cc2c2c3c(c(-c4ccccc4Cl)cc21)C(=O)NC3=O [Example 230, 3-(4-(2-Chlorophenyl)-9-hydroxy-1,3-dioxo-2,3-dihydropyrrolo[3,4-c]carbazol-6 (1H)-yl)propanoic acid]

IC50 [1]: 1800 nM
Compound: O=C1NC(=O)c2c1c(-c1c(Cl)cccc1Cl)cc1c2c2cc(O)ccc2n1CCO [Example 94, 4-(2,6-Dichlorophenyl)-9-Hydroxy-6-(2-hydroxyethyl)pyrrolo[3,4-c]carbazole-1,3(2H,6H)-dione]
